Test [1] concerns the target T1, IGF-1 receptor (Homo sapiens, UniProt P08069). Description: IGF-1 receptor phosphorylation assay, receptor transfected HEK293 cells. Also noted: expressed in transfected cells; host or cells: HEK293. Format: cell-based. The method, then: (§1) Color development was stopped 5 min later by adding 0.05 ml 1 N HCl. Absorbance at 450 nm was measured on Titertek Multiscan MCC340 (ThermoFisher, Pittsburgh, Pa.).

Test [2] concerns the target T1, IGF-1 receptor. Kind of test: IGF-1 receptor binding assay (competition, scintillation proximity). More on the design: expressed in transfected cells; plasma membrane fragments. The note with it: for IGF-1 Receptor % IGF-1 (in test): Table 9. A general note: Scintillation proximity formats need no separation of bound from free tracer.
The target in test [3] is T2, insulin receptor (Homo sapiens, UniProt P06213). Description: Insulin receptor phosphorylation assay, receptor transfected HEK293 cells. Format: cell-based. More on the design: expressed in transfected cells; host or cells: HEK293. The note with it: for EC50: Insulin Receptor EC50:, total phosphorylation; for EC50 / Insulin Receptor % Insulin: Table 10. The method, then: as §1

Test [4] addresses T2, insulin receptor. Kind of test: Insulin receptor binding assay (competition, scintillation proximity). The note with it: for Ratio: IGF-1 receptor IC50 over insulin receptor IC50; for Insulin Receptor % insulin (in test) / Insulin Receptor % native insulin activity (0.6 nM): Table 9. More on the design: expressed in transfected cells; plasma membrane fragments.
A further test addresses IR-A (Homo sapiens, UniProt P06213). Description: In vitro activity of pegylated analogs relative to native insulin at IR-A.
In test [5] the test system is human mammary epithelial cells (HMEC). Description: Human mammary epithelial cells proliferation ([14C]-thymidine). Type of test: cell-based. How it is done:
The plate was incubated 4 h at 37° C., 5% CO2 and 90% humidity.

Test [6] addresses insulin subtype B receptor (IR-B) (Homo sapiens, UniProt P06213). Kind of test: Insulin subtype B receptor phosphorylation, receptor transfected HEK293 cells. Type of test: cell-based. Also noted: expressed in transfected cells; host or cells: HEK293. How it is done: (§2) Color development was stopped 5 min later by adding 0.05 ml 1 N HCl. Absorbance at 450 nm was measured on Titertek Multiscan MCC340 (ThermoFisher, Pittsburgh, Pa.). […]

The target of test [7] is T3, insulin subtype A receptor (IR-A) (Homo sapiens, UniProt P06213).
T3 construct: expressed in transfected cells; host or cells: HEK293
Description: Insulin subtype A receptor phosphorylation, receptor transfected HEK293 cells. Format: cell-based. The note with it: FIGS. 21, 23. How it is done: as §2

[8] abbreviates: total phosphorylation, Table 10.
Where [9] appears, read: Table 15, read-out: Proliferation HMEC EC50.

Values joined by “and” are separate entries in the source; they are usually repeats but may differ in a detail not shown here. Identical values can stand only once. Like-named read-outs stand apart in the source and are kept apart here.

`CC[C@H](C)[C@H](NC(=O)CN)C(=O)N[C@H](C(=O)N[C@@H](CC(=O)O)C(=O)N[C@@H](CCC(=O)O)C(=O)N[C@H]1CSSC[C@@H]2NC(=O)[C@H](CO)NC(=O)[C@H](C)NC(=O)[C@H](Cc3c[nH]cn3)NC(=O)[C@H](CSSC[C@H](NC(=O)[C@H](CC(C)C)NC(=O)[C@H](Cc3c[nH]cn3)NC(=O)[C@H](CCC(=O)O)NC(=O)[C@@H]3CCCN3C(=O)CN)C(=O)NCC(=O)N[C@@H](C)C(=O)N[C@@H](CC(=O)O)C(=O)N[C@@H](CC(C)C)C(=O)N[C@@H](C(C)C)C(=O)N[C@@H](CC(=O)O)C(=O)N[C@@H](C)C(=O)N[C@@H](CC(C)C)C(=O)N[C@@H](Cc3ccc(O)cc3)C(=O)N[C@@H](CC(C)C)C(=O)N[C@@H](C(C)C)C(=O)N[C@H](C(=O)NCC(=O)N[C@@H](CC(=O)O)C(=O)N[C@@H](CCCNC(=N)N)C(=O)NCC(=O)N[C@@H](Cc3ccccc3)C(=O)N[C@@H](Cc3ccc(O)cc3)C(N)=O)CSSC[C@@H](C(=O)N[C@@H](CC(N)=O)C(=O)O)NC(=O)[C@H](Cc3ccc(O)cc3)NC(=O)[C@H](CCSC)NC(=O)[C@H](CCC(=O)O)NC(=O)[C@H](CC(C)C)NC(=O)[C@H](CCCNC(=N)N)NC(=O)[C@H](CCCNC(=N)N)NC(=O)[C@H](CC(C)C)NC(=O)[C@H](CC(=O)O)NC2=O)NC1=O)C(C)C`: at IGF-1 receptor [1] (Table 10), the “IGF-1 Receptor % IGF” value was 181.395%. Also, the EC50 on IGF-1 receptor [1] (setting [8]) is 0.43 nM. Besides, at IGF-1 receptor [2], the “IGF-1 Receptor % IGF-1 (in test)” value came to 12.9%. Moreover, the EC50 at insulin receptor [3] was 0.15 nM and 0.25 nM. For the same molecule, the “Insulin Receptor % Insulin” value at insulin receptor [3] (listed as IGF-1 A (H8 A9 N21) B(H5D10Y16L17) DPI A-COOH) is 840% and 1080%. At insulin receptor [4], the Ratio is 80.6; the “Insulin Receptor % insulin (in test)” value is 1576.7% and 1667.0%.

In the case of `CC[C@H](C)[C@H](NC(=O)CN)C(=O)N[C@H](C(=O)N[C@@H](CC(=O)O)C(=O)N[C@@H](CCC(=O)O)C(=O)N[C@H]1CSSC[C@@H]2NC(=O)[C@H](CO)NC(=O)[C@H](CCCNC(=N)N)NC(=O)[C@H](Cc3ccccc3)NC(=O)[C@H](CSSC[C@H](NC(=O)[C@H](CC(C)C)NC(=O)[C@@H](NC(=O)[C@H](CCC(=O)O)NC(=O)[C@@H]3CCCN3C(=O)CN)[C@@H](C)O)C(=O)NCC(=O)N[C@@H](C)C(=O)N[C@@H](CC(=O)O)C(=O)N[C@@H](CC(C)C)C(=O)N[C@@H](C(C)C)C(=O)N[C@@H](CC(=O)O)C(=O)N[C@@H](C)C(=O)N[C@@H](CC(C)C)C(=O)N[C@@H](Cc3ccc(O)cc3)C(=O)N[C@@H](CC(C)C)C(=O)N[C@@H](C(C)C)C(=O)N[C@H](C(=O)NCC(=O)N[C@@H](CC(=O)O)C(=O)N[C@@H](CCCNC(=N)N)C(=O)NCC(=O)N[C@@H](Cc3ccccc3)C(=O)N[C@@H](Cc3ccc(O)cc3)C(N)=O)CSSC[C@@H](C(=O)N[C@@H](C)C(=O)O)NC(=O)[C@H](Cc3ccc(O)cc3)NC(=O)[C@H](CCSC)NC(=O)[C@H](CCC(=O)O)NC(=O)[C@H](CC(C)C)NC(=O)[C@H](CCCNC(=N)N)NC(=O)[C@H](CCCNC(=N)N)NC(=O)[C@H](CC(C)C)NC(=O)[C@H](CC(=O)O)NC2=O)NC1=O)C(C)C` [IGF-1 A:B(D10Y16L17) DPI A-COOH], the “IGF-1 Receptor % IGF” value on IGF-1 receptor [1] (Table 10) came out at 111.538%. At IGF-1 receptor [1] (setting [8]), this molecule registered an EC50 of 0.78 nM. The “IGF-1 Receptor % IGF-1 (in test)” value at IGF-1 receptor [2] is listed as 7.7%. The “Insulin Receptor % Insulin” value at insulin receptor [3] is 1575%.

With `CC[C@H](C)[C@H](NC(=O)CN)C(=O)N[C@H](C(=O)N[C@@H](CC(=O)O)C(=O)N[C@@H](CCC(=O)O)C(=O)N[C@H]1CSSC[C@@H]2NC(=O)[C@H](CO)NC(=O)[C@H](CCCNC(=N)N)NC(=O)[C@H](Cc3ccccc3)NC(=O)[C@H](CSSC[C@H](NC(=O)[C@H](CC(C)C)NC(=O)[C@@H](NC(=O)[C@H](CCC(=O)O)NC(=O)[C@@H]3CCCN3C(=O)CN)[C@@H](C)O)C(=O)NCC(=O)N[C@@H](C)C(=O)N[C@@H](CCC(=O)O)C(=O)N[C@@H](CC(C)C)C(=O)N[C@@H](C(C)C)C(=O)N[C@@H](CC(=O)O)C(=O)N[C@@H](C)C(=O)N[C@@H](CC(C)C)C(=O)N[C@@H](Cc3ccc(O)cc3)C(=O)N[C@@H](CC(C)C)C(=O)N[C@@H](C(C)C)C(=O)N[C@H](C(=O)NCC(=O)N[C@@H](CC(=O)O)C(=O)N[C@@H](CCCNC(=N)N)C(=O)NCC(=O)N[C@@H](Cc3ccccc3)C(=O)N[C@@H](Cc3ccc(O)cc3)C(=O)N[C@@H](Cc3ccccc3)C(=O)N[C@@H](CC(N)=O)C(=O)N[C@@H](CCCCN)C(=O)N3CCC[C@H]3C(=O)N[C@H](C(=O)N[C@@H](CCC(=O)O)C(=O)N[C@@H](CCC(=O)O)C(=O)O)[C@@H](C)O)CSSC[C@@H](C(=O)N[C@@H](C)C(N)=O)NC(=O)[C@H](Cc3ccc(O)cc3)NC(=O)[C@H](CCSC)NC(=O)[C@H](CCC(=O)O)NC(=O)[C@H](CC(C)C)NC(=O)[C@H](CCCNC(=N)N)NC(=O)[C@H](CCCNC(=N)N)NC(=O)[C@H](CC(C)C)NC(=O)[C@H](CC(=O)O)NC2=O)NC1=O)C(C)C` [IGF-1 A:B(E10 Y16L17)-E31E3 2B-COOH], the “IGF-1 Receptor % IGF-1 (in test)” value on IGF-1 receptor [2] amounted to 3.0%. In addition, on insulin receptor [3], the EC50 was 7 nM and 8.52 nM; the “Insulin Receptor % Insulin” value is 18.1% and 31.7%. Besides, at insulin receptor [4], the Ratio came out at 14.3, the “Insulin Receptor % insulin (in test)” value amounted to 36.5% and the “Insulin Receptor % native insulin activity (0.6 nM)” value was determined as 50.0%.

Consider `CC[C@H](C)[C@H](NC(=O)CN)C(=O)N[C@H](C(=O)N[C@@H](CC(=O)O)C(=O)N[C@@H](CCC(=O)O)C(=O)N[C@H]1CSSC[C@@H]2NC(=O)[C@H](CO)NC(=O)[C@H](CCCNC(=N)N)NC(=O)[C@H](Cc3ccccc3)NC(=O)[C@H](CSSC[C@H](NC(=O)[C@H](CC(C)C)NC(=O)[C@@H](NC(=O)[C@H](CCC(=O)O)NC(=O)[C@@H]3CCCN3C(=O)CN)[C@@H](C)O)C(=O)NCC(=O)N[C@@H](C)C(=O)N[C@@H](CCC(=O)O)C(=O)N[C@@H](CC(C)C)C(=O)N[C@@H](C(C)C)C(=O)N[C@@H](CC(=O)O)C(=O)N[C@@H](C)C(=O)N[C@@H](CC(C)C)C(=O)N[C@@H](Cc3ccc(O)cc3)C(=O)N[C@@H](CC(C)C)C(=O)N[C@@H](C(C)C)C(=O)N[C@H](C(=O)NCC(=O)N[C@@H](CC(=O)O)C(=O)N[C@@H](CCCNC(=N)N)C(=O)NCC(=O)N[C@@H](Cc3ccccc3)C(=O)N[C@@H](Cc3ccc(O)cc3)C(=O)N[C@@H](Cc3ccccc3)C(=O)N[C@@H](CC(N)=O)C(=O)N[C@@H](CCCCN)C(=O)N3CCC[C@H]3C(=O)N[C@H](C(N)=O)[C@@H](C)O)CSSC[C@@H](C(=O)N[C@@H](C)C(N)=O)NC(=O)[C@H](Cc3ccc(O)cc3)NC(=O)[C@H](CCSC)NC(=O)[C@H](CCC(=O)O)NC(=O)[C@H](CC(C)C)NC(=O)[C@H](CCCNC(=N)N)NC(=O)[C@H](CCCNC(=N)N)NC(=O)[C@H](CC(C)C)NC(=O)[C@H](CC(=O)O)NC2=O)NC1=O)C(C)C` [IGF-1 A:B(E10Y16L17)], for which the “IGF-1 Receptor % IGF” value at IGF-1 receptor [1] (Table 10) was 13%. Also, the “IGF-1 Receptor % IGF-1 (in test)” value at IGF-1 receptor [2] was 6.8% and 5.0%. For the same molecule, on insulin receptor [3], the “Insulin Receptor % Insulin” value was 49.2%. In addition, at insulin receptor [4], the Ratio came to 11.9; the “Insulin Receptor % insulin (in test)” value is 58.7% and 98.8%; the “Insulin Receptor % native insulin activity (0.6 nM)” value was 90.9% and 117.6%.

As for “B^1(H5,Y16,L17)25-C^1(K8)-A^1(N18,21) (GPEHLCGAELVDALYLVCGDRGFYGYGSSSRKAPQTGIVDECCFRSCDLRRLENYCN) [MIU-67, two 10K PEG chains, at the N-terminus and at position C8 of the linking moiety]”, the “% Insulin Activity IR-A” value with IR-A is reported as 0.2%.

Regarding “Insulin: native human insulin, 51 amino acid heteroduplex of A chain SEQ ID NO: 1 and B chain SEQ ID NO: 2 [reference compound]”, the EC50 in test [5] (setting [9]) was 23.4 nM; in test [5] (average measured potency at 24, 48, 72 and 96 hours, read-out: EC50) it was 6.16 nM.

B1: DP20 2CTP: two end to end linked CTP peptides as the linking peptide (SEQ ID NO: 75) (protein, listed as Homo sapiens)
chain: GEEEEEKGPEHLCGAHLVDALYLVCGDRGFYSSSSRAPPPSLPSPSRLPGPSDTPILPQKSSSSRAPPPSLPSPSRLPGPSDTPILPQKGIVDECCHRSCDLRRLENYCN
Take B1: the “in vitro phosphorylation activity at the insulin receptor (result in words)” value with insulin receptor [3] (FIGS. 22A, 22B) is on record as “appears to be active as an insulin agonist”.

B2: DP20LysC: DP20 cleaved at the lysine of CTP to produce a two chain insulin (protein)
chain 1: GPEHLCGAHLVDALYLVCGDRGFYSSSSRAPPPSLPSPSRLPGPSDTPILPQK
chain 2: GIVDECCHRSCDLRRLENYCN
Consider B2, for which the EC50 with IGF-1 receptor [1] (Table 15, read-out: Receptor Phosphorylation IGF-IR EC50) turned out to be 13.3 nM; in test [5] (setting [9]) it was 8.19 nM; in test [6] (Table 15, read-out: Receptor Phosphorylation IR-B EC50), 1.33 nM; in test [6] (read-out: EC50 values (in nM), phosphorylation at the insulin subtype B receptor, experiment of FIG. 18B), 2.44 ± 1.3 nM; in the test with IGF-1 receptor [2] (Table 15, read-out: Receptor Binding IGR-1R EC50) it was 50 nM. The “in vitro phosphorylation activity at the insulin subtype A receptor (result in words)” value in test [7] is “potency similar to native insulin”.

The record behind these values is US9573987B2 (priority 2011, dated 2017).
